Laboratory results from patent publication US20220033430A1, “ORALLY ACTIVE PRODRUG OF GEMCITABINE” (TNT Medical Corporation, priority 2018, published 2022).
Entries after “also recorded” stand apart in the source; their conditions may differ.

Key:
[1] = Water solubility observed during formulation for the PK study; type: physicochemical; settings: compared with LY2334737
[2] = Mice PK study: plasma active metabolite Gemcitabine after dosing of prodrug; type: in vivo, male CD1 mouse; settings: single dose 10, 150, 300 mg/kg
Description: The pharmacokinetics of compounds were evaluated in male CD1 mouse via Intravenous and Oral Administration. The iv dose was administered as a slow bolus in the Jugular vein, and oral doses were administered by gavage. The formulation is 2.5% DMSO, 10% EtOH, 20% Cremphor EL, 67.5% D5W. The PK time point 5 min, 15, 30 min, 1, 2, 4, 6, 8 hours post dose. Approximately 0.03 mL blood will be collected at each time point. Keep blood at room temperature and collect plasma within 15 min by centrifugation at 4000 g for 5 minutes in a 4° C. centrifuge. Plasma samples will be stored in polypropylene tubes. The plasma samples will be stored in a freezer at −75±15° C. prior to analysis. Concentrations of compounds and the active metaboliste Gemcitabine in the plasma samples will be analyzed using a LC-MS/MS method. WinNonlin (Phoenix, version 6.1) or other similar software will be used for pharmacokinetic calculations. The following pharmacokinetic parameters will be calculated, whenever possible from the plasma concentration versus time data: IV administration: C0, CL, Vd, T1/2, AUCinf, AUClast, MRT, Number of Points for Regression; PO administration: Cmax, Tmax, T1/2, AUCinf, AUClast, F %, Number of Points for Regression. The pharmacokinetic data will be described using descriptive statistics such as mean, standard deviation. […]

[3] = test system: ovarian cancer A2780 xenograft model; assay: In vivo xenograft study, ovarian cancer A2780 model; design: species or system mice; settings: for Tumor volume: A2780 xenograft
Source text: Compound of Example 2 was selected for in vivo studies in the ovarian cancer A2780 xenograft model. Typically, athymic nude mice (CD-1 nu/nu) or SCID mice are obtained at age 6-8 weeks from vendors and acclimated for a minimum 7-day period. The cancer cells are then implanted into the nude mice. Depending on the specific tumor type, tumors are typically detectable about two weeks following implantation. When tumor sizes reach ˜100-200 mm^3, the animals with appreciable tumor size and shape are randomly assigned into groups of 8 mice each, including one vehicle control group and treatment groups. Dosing varies depending on the purpose and length of each study, which typically proceeds for about 3-4 weeks. Tumor sizes and body weight are typically measured three times per week. In addition to the determination of tumor size changes, the last tumor measurement is used to generate the tumor size change ratio (T/C value), a standard metric developed by the National Cancer Institute for xenograft tumor evaluation. In most cases, % T/C values are calculated using the following formula: % T/C=100×ΔT/ΔC if ΔT>0. When tumor regression occurred (ΔT<0), however, the following formula is used: % T/T0=100×ΔT/T0. Values of <42% are considered significant.
Ovarian Cancer is the 5th most common cancer in women: ˜ 22,280 new cases and 14,240 death in 2016 in US. In China, Ovarian Cancer has more than 100,000 new cases each year. Gemcitabine (intravenous dosing) is the 2nd line SOC of Ovarian Cancer.

[4] = mice, single oral (gavage) dose of 167, 333, or 500 mg/kg; cited from earlier work
[5] = LY2334737 QD, Japanese patients, 2013; cited from earlier work

For `CCCC(CCC)C(=O)Nc1ccn([C@@H]2O[C@H](COC(=O)C(C)C)[C@@H](OC(=O)[C@@H](N)C(C)C)C2(F)F)c(=O)n1` [Example 2, (2R,3R,5R)-4,4-difluoro-2-[[(2-methylpropanoyl)oxy]methyl]-5-[2-oxo-4-(2-propylpentanamido)-1,2-dihydropyrimidin-1-yl]oxolan-3-yl (2S)-2-amino-3-methylbutanoate], the water solubility [1] was “significant higher water solubility than LY2334737; also recorded: excellent water solubility”, the “PK linearity of active metabolite Gemcitabine” value [2] was “good PK linearity” and the “efficacy compared with Gemcitabine (IV dosing)” value ([3]; A2780 model, Example 2 oral dosing) was “better efficacy than Gemcitabine (IV dosing)”. The Tumor volume ([3]; 75 mg/kg po q4d × 7) was 65 mm^3.
In the case of `Nc1ccn([C@@H]2O[C@H](CO)[C@@H](O)C2(F)F)c(=O)n1` [Gemcitabine], the “adverse dose-limiting intestinal lesions” value [4] is listed as “moderate-to-marked loss of mucosal epithelium (atrophic enteropathy)” and the Tumor volume ([3]; 120 mg/kg IV qw × 4) is listed as 442 mm^3.
For `CCCC(CCC)C(=O)Nc1ccn([C@@H]2O[C@H](CO)[C@@H](O)C2(F)F)c(=O)n1` [LY2334737], the hepatic toxicity [5] is listed as “unexpected hepatic toxicities were observed”.
